Measurements reported in patent US9981964B2 (Agency for Science, Technology and Research, priority 2013, dated 2018).
pIC50: −log10 of the molar value.

Test system: HEK293-STF3A cells
Assay: STF3A assay (STF luciferase reporter in Wnt3A-expressing HEK293 cells)
Type: cell-based
Settings: Homo sapiens, 24 h, 1 day of treatment
Excerpt: HEK293-STF cell line was modified from Human embryonic kidney cell line HEK293 transfected with the STF reporter. HEK293-STF3A cell line was further modified from HEK293-STF cell line to express Wnt3A. This cell line was used to identify compounds that regulate either early or late signaling components of the Wnt pathway. These two cell lines were obtained from David Virshup's laboratory, Duke-NUS. L-Wnt3A (ATCC, #CRL-2647) cell line was used for providing Wnt3A conditioned media. The three cell lines were grown in DMEM with 10% FBS incubated in 37° C. with 5% CO2.
2×10^4 HEK293-STF3A cells in 75 μl culture media were seeded in each well of white 96 well plates (Greiner #655098) and incubated overnight at 37° C. 25 μl serially diluted compound was added to the cells to give final concentration of 50 μM to 1.5 nM. After 1 day of treatment, 100 μl of Steady-Glo Luciferase Assay reagent (#E2520, Promega) was added to each well and incubated for 10 minutes at room temperature. Luminescence was measured using Tecan Safire2 plate reader.

Compound | pIC50
CN1C(=O)C2=C(C1=O)N(CC(=O)Nc1ccc(-c3ccccc3)nc1)CCC2 [Compound 37, 2-(6-methyl-5,7-dioxo-2,3,4,5,6,7-hexahydro-1H-pyrrolo[3,4-b]pyridin-1-yl)-N-(6-phenylpyridin-3-yl)acetamide] | > 7.00
CN1C(=O)C2=C(C1=O)N(CC(=O)Nc1ccc(-c3ccccc3)cc1)CCC2 [Compound 70, N-([1,1′-biphenyl]-4-yl)-2-(6-methyl-5,7-dioxo-2,3,4,5,6,7-hexahydro-1H-pyrrolo[3,4-b]pyridin-1-yl)acetamide] | > 7.00
O=C(CN1CCCC2=C1C(=O)N(C1CC1)C2=O)Nc1ccc(-c2ccc(F)nc2)nn1 [Compound 69, 2-(6-cyclopropyl-5,7-dioxo-2,3,4,5,6,7-hexahydro-1H-pyrrolo[3,4-b]pyridin-1-yl)-N-(6-(6-fluoropyridin-3-yl)pyridazin-3-yl)acetamide] | > 7.00
CC(C(=O)Nc1cc(-c2cccc(Cl)c2)no1)N1CCCC2=C1C(=O)N(C)C2=O (stereo not shown) [Compound 18, N-(3-(3-chlorophenyl)isoxazol-5-yl)-2-(6-methyl-5,7-dioxo-2,3,4,5,6,7-hexahydro-1H-pyrrolo[3,4-b]pyridin-1-yl)propanamide] | > 5.30
Cc1cccc(-c2ccc(NC(=O)CN3CCCC4=C3C(=O)N(C)C4=O)nc2)n1 [Compound 34, 2-(6-methyl-5,7-dioxo-2,3,4,5,6,7-hexahydro-1H-pyrrolo[3,4-b]pyridin-1-yl)-N-(6-methyl-[2,3′-bipyridin]-6′-yl)acetamide] | > 7.00
Cc1ccc(-c2ccc(NC(=O)CN3CCCC4=C3C(=O)N(C3CC3)C4=O)nc2)nc1 [Compound 146, 2-(6-cyclopropyl-5,7-dioxo-2,3,4,5,6,7-hexahydro-1H-pyrrolo[3,4-b]pyridin-1-yl)-N-(5-methyl-2,3′-bipyridin-6′-yl)acetamide] | > 6.00
C[C@H](C(=O)Nc1ccc(-c2ccccc2)nn1)N1CCCC2=C1C(=O)N(C)C2=O (single isomer, unassigned) [Compound 95] | < 5.00
Cc1cc(NC(=O)CN2CCCC3=C2C(=O)N(C)C3=O)ncc1-c1cccnc1 [Compound 114, 2-(6-methyl-5,7-dioxo-2,3,4,5,6,7-hexahydro-1H-pyrrolo[3,4-b]pyridin-1-yl)-N-(4-methyl-[3,3′-bipyridin]-6-yl)acetamide] | > 5.30
Cc1nc(-c2ccc(NC(=O)CN3CCCC4=C3C(=O)N(C3CC3)C4=O)nc2)cs1 [Compound 15, 2-(6-cyclopropyl-5,7-dioxo-2,3,4,5,6,7-hexahydro-1H-pyrrolo[3,4-b]pyridin-1-yl)-N-(5-(2-methylthiazol-4-yl)pyridin-2-yl)acetamide] | > 7.00
O=C(CN1CCCC2=C1C(=O)N(C1CC1)C2=O)Nc1ccc(-c2cccnc2F)cn1 [Compound 104, 2-(6-cyclopropyl-5,7-dioxo-2,3,4,5,6,7-hexahydro-1H-pyrrolo[3,4-b]pyridin-1-yl)-N-(2′-fluoro-[3,3′-bipyridin]-6-yl)acetamide] | > 7.00
O=C(CN1CCCC2=C1C(=O)N(C1CC1)C2=O)Nc1ccc(-c2ccccn2)cn1 [Compound 16, N-([2,3′-bipyridin]-6′-yl)-2-(6-cyclopropyl-5,7-dioxo-2,3,4,5,6,7-hexahydro-1H-pyrrolo[3,4-b]pyridin-1-yl)acetamide] | > 7.00
CN1C(=O)C2=C(C1=O)N(CC(=O)Nc1ccc(-c3ccc(F)cc3)cn1)CCC2 [Compound 7, N-(5-(4-fluorophenyl)pyridin-2-yl)-2-(6-methyl-5,7-dioxo-2,3,4,5,6,7-hexahydro-1H-pyrrolo[3,4-b]pyridin-1-yl)acetamide] | > 7.00
CC(C)N1C(=O)C2=C(C1=O)N(CC(=O)Nc1ccc(-c3ccccc3)nn1)CCC2 [Compound 33, 2-(6-isopropyl-5,7-dioxo-2,3,4,5,6,7-hexahydro-1H-pyrrolo[3,4-b]pyridin-1-yl)-N-(6-phenylpyridazin-3-yl)acetamide] | > 7.00
COc1ccc(-c2ccc(NC(=O)CN3CCCC4=C3C(=O)N(C3CC3)C4=O)cn2)cn1 [Compound 145, 2-(6-cyclopropyl-5,7-dioxo-2,3,4,5,6,7-hexahydro-1H-pyrrolo[3,4-b]pyridin-1-yl)-N-(6′-methoxy-2,3′-bipyridin-5-yl)acetamide] | > 7.00
CN1C(=O)C2=C(C1=O)N(CC(=O)Nc1ccc(-c3ccccn3)cc1)CCC2 [Compound 76, 2-(6-methyl-5,7-dioxo-2,3,4,5,6,7-hexahydro-1H-pyrrolo[3,4-b]pyridin-1-yl)-N-(4-(pyridin-2-yl)phenyl)acetamide] | > 7.00
O=C(CN1CCCC2=C1C(=O)N(C1CC1)C2=O)Nc1ccc(-c2ccc(F)nc2)nc1 [Compound 124, 2-(6-cyclopropyl-5,7-dioxo-2,3,4,5,6,7-hexahydro-1H-pyrrolo[3,4-b]pyridin-1-yl)-N-(6′-fluoro-[2,3′-bipyridin]-5-yl)acetamide] | > 7.00

Compound | pIC50
Cc1ccncc1-c1ccc(NC(=O)CN2CCCC3=C2C(=O)N(C2CC2)C3=O)cn1 [Compound 138, 2-(6-cyclopropyl-5,7-dioxo-2,3,4,5,6,7-hexahydro-1H-pyrrolo[3,4-b]pyridin-1-yl)-N-(4′-methyl-2,3′-bipyridin-5-yl)acetamide] | > 6.00
O=C(CN1CCCC2=C1C(=O)N(C1CC1)C2=O)Nc1ccc(-c2cc(F)ccn2)cn1 [Compound 156, 2-(6-cyclopropyl-5,7-dioxo-2,3,4,5,6,7-hexahydro-1H-pyrrolo[3,4-b]pyridin-1-yl)-N-(4-fluoro-[2,3′-bipyridin]-6′-yl)acetamide] | > 7.00
CC(C(=O)Nc1ccc(-c2ccccn2)cn1)N1CCCC2=C1C(=O)N(C)C2=O (stereo not shown) [Compound 17, N-([2,3′-bipyridin]-6′-yl)-2-(6-methyl-5,7-dioxo-2,3,4,5,6,7-hexahydro-1H-pyrrolo[3,4-b]pyridin-1-yl)propanamide] | > 7.00
C[C@H](C(=O)Nc1ccc(-c2cccnc2)cn1)N1CCCC2=C1C(=O)N(C)C2=O (single isomer, unassigned) [Compound 93] | > 6.00
COc1cccc(-c2ccc(NC(=O)CN3CCCC4=C3C(=O)N(C)C4=O)nn2)c1 [Compound 32, N-(6-(3-methoxyphenyl)pyridazin-3-yl)-2-(6-methyl-5,7-dioxo-2,3,4,5,6,7-hexahydro-1H-pyrrolo[3,4-b]pyridin-1-yl)acetamide] | > 7.00
Cc1cncc(-c2ccc(NC(=O)CN3CCCC4=C3C(=O)N(C3CC3)C4=O)nn2)c1 [Compound 53, 2-(6-cyclopropyl-5,7-dioxo-2,3,4,5,6,7-hexahydro-1H-pyrrolo[3,4-b]pyridin-1-yl)-N-(6-(5-methylpyridin-3-yl)pyridazin-3-yl)acetamide] | > 7.00
COc1cc(NC(=O)CN2CCCC3=C2C(=O)N(C)C3=O)ccc1-c1ccccc1 [Compound 99, N-(2-methoxy-[1,1′-biphenyl]-4-yl)-2-(6-methyl-5,7-dioxo-2,3,4,5,6,7-hexahydro-1H-pyrrolo[3,4-b]pyridin-1-yl)acetamide] | > 5.00
Cc1ccc(-c2ccc(NC(=O)CN3CCCC4=C3C(=O)N(C)C4=O)cn2)cc1 [Compound 158, 2-(6-methyl-5,7-dioxo-2,3,4,5,6,7-hexahydro-1H-pyrrolo[3,4-b]pyridin-1-yl)-N-(6-(p-tolyl)pyridin-3-yl)acetamide] | > 7.00
CN1C(=O)C2=C(C1=O)N(CC(=O)Nc1ccc(-c3ccc(F)nc3)nc1)CCC2 [Compound 108, N-(6′-fluoro-[2,3′-bipyridin]-5-yl)-2-(6-methyl-5,7-dioxo-2,3,4,5,6,7-hexahydro-1H-pyrrolo[3,4-b]pyridin-1-yl)acetamide] | > 6.00
CN1C(=O)C2=C(C1=O)N(CC(=O)Nc1cc(F)c(-c3cccnc3)cn1)CCC2 [Compound 155, N-(4-fluoro-3,3′-bipyridin-6-yl)-2-(6-methyl-5,7-dioxo-2,3,4,5,6,7-hexahydro-1H-pyrrolo[3,4-b]pyridin-1-yl)acetamide] | > 7.00
O=C(CN1CCCC2=C1C(=O)N(C1CC1)C2=O)Nc1ccc(-c2cncnc2)cn1 [Compound 89, 2-(6-cyclopropyl-5,7-dioxo-2,3,4,5,6,7-hexahydro-1H-pyrrolo[3,4-b]pyridin-1-yl)-N-(5-(pyrimidin-5-yl)pyridin-2-yl)acetamide] | > 7.00
CN1C(=O)C2=C(C1=O)N(CC(=O)Nc1ccc(-c3ccccc3)c(F)c1)CCC2 [Compound 80, N-(2-fluoro-[1,1′-biphenyl]-4-yl)-2-(6-methyl-5,7-dioxo-2,3,4,5,6,7-hexahydro-1H-pyrrolo[3,4-b]pyridin-1-yl)acetamide] | > 7.00
Cc1cc(-c2cccnc2)ncc1NC(=O)CN1CCCC2=C1C(=O)N(C1CC1)C2=O [Compound 140, 2-(6-cyclopropyl-5,7-dioxo-2,3,4,5,6,7-hexahydro-1H-pyrrolo[3,4-b]pyridin-1-yl)-N-(4-methyl-2,3′-bipyridin-5-yl)acetamide] | > 5.00
O=C(CN1CCCC2=C1C(=O)N(C1CC1)C2=O)Nc1ccc(-c2ccccc2)cc1 [Compound 67, N-([1,1′-biphenyl]-4-yl)-2-(6-cyclopropyl-5,7-dioxo-2,3,4,5,6,7-hexahydro-1H-pyrrolo[3,4-b]pyridin-1-yl)acetamide] | > 7.00
CN1C(=O)C2=C(C1=O)N(CC(=O)Nc1cnc(-c3ccccc3)cn1)CCC2 [Compound 12, 2-(6-methyl-5,7-dioxo-2,3,4,5,6,7-hexahydro-1H-pyrrolo[3,4-b]pyridin-1-yl)-N-(5-phenylpyrazin-2-yl)acetamide] | > 7.00
